# Source: patent US6358885B1, “Substituted phenylheterocyclic herbicides” (Mississippi State University, priority 1992, dated 2002)
# Test system: speedwell
# Assay: Test C preemergence/postemergence greenhouse plant response rating 0 to 100
# Format: in vivo, Veronica persica
# Settings: for Plant response rating Speedwell: 0 to 100 scale
# Text: The compounds evaluated in this test were formulated in a non-phytoxic solvent and applied to the soil surface before plant seedlings emerged (preemergence application), to water that covered the soil surface (flood application), and to plants that were in the one-to-four leaf stage (postemergence application). A sandy loam soil was used for the preemergence and postemergence tests, while a silt loam soil was used in the flood test. Water depth was approximately 2.5 cm for the flood test and was maintained at this level for the duration of the test. Plant species in the preemergence and postemergence tests consisted of barley (Hordeum vulgare), bedstraw (Galium aparine), blackgrass (Alopecurus myosuroides), chickweed (Stellaria media), corn (Zea mays), cotton (Gossypium hirsutum), crabgrass (Digitaria sanguinalis), downy brome (Bromus tectorum), giant foxtail (Setaria faberii), lambsquarters (Chenopodium album), morningglory (Ipomoea hederacea), pigweed ([…]), rape (Brassica napus), ryegrass (Lolium multiflorum), sorghum (Sorghum bicolor), soybean (Glycine max), speedwell (Veronica persica), sugar beet (Beta vulgaris), velvetleaf (Abutilon theophrasti), wheat (Triticum aestivum), wild buckwheat (Polygonum convolvulus), and wild oat (Avena fatua). All plant species were planted one day before application of the compound for the preemergence portion-of this test. Plantings of these species were adjusted to produce plants of appropriate size for the post-emergence portion of the test. […] All plant species were grown using normal greenhouse practices. Visual evaluations of injury expressed on treated plants, when compared to untreated controls, were recorded approximately fourteen to twenty one days after application of the test compound. […] A dash (-) response means no test result.
Structure (SMILES),"Plant response rating Speedwell (POSTEMERGENCE, 62 g/ha)","Plant response rating Speedwell (POSTEMERGENCE, 125 g/ha)","Plant response rating (0 to 100), Speedwell (Rate 16 g/ha, POSTEMERGENCE)","Plant response rating (0 to 100), Speedwell (Rate 31 g/ha, POSTEMERGENCE)","Plant response rating (0 to 100), Speedwell (POSTEMERGENCE, Rate 4 g/ha)","Plant response rating (0 to 100), Speedwell (POSTEMERGENCE, Rate 1 g/ha)",other results
C=CCN1C(=O)COc2cc(F)c(-c3nn4c(c3Br)CCCC4)cc21 [Compound 41],100,100,100,100,–,–,–
CCOC(=O)COc1cc(-c2nn3c(c2Cl)CCCC3)c(F)cc1Cl [Compound 42],100,100,95,100,–,–,–
C#CC(C)Oc1cc(-c2nn3c(c2Br)CCCC3)c(F)cc1Cl (stereo not drawn) [Compound 66],100,–,100,–,100,–,"Plant response rating Speedwell (POSTEMERGENCE, 250 g/ha): 100; Plant response rating Speedwell (PREEMERGENCE, 250 g/ha): 100; Plant response rating (0 to 100), Speedwell (PREEMERGENCE, Rate 4 g/ha): 0; Plant response rating (0 to 100), Speedwell (Rate 16 g/ha, PREEMERGENCE): 90"
Fc1cc(Cl)ccc1-c1nn2c(c1Br)CCCC2 [Compound 52],–,100,–,100,–,–,"Plant response rating Speedwell (PREEMERGENCE, 125 g/ha): 100; Plant response rating (0 to 100), Speedwell (PREEMERGENCE, Rate 2 g/ha): 0; Plant response rating (0 to 100), Speedwell (Rate 8 g/ha, POSTEMERGENCE): 30; Plant response rating (0 to 100), Speedwell (Rate 8 g/ha, PREEMERGENCE): 0; Plant response rating (0 to 100), Speedwell (Rate 31 g/ha, PREEMERGENCE): 20"
Fc1cc(Cl)c(OCCCl)cc1-c1nn2c(c1Cl)CCCC2 [Compound 49],100,–,100,–,85,–,"Plant response rating Speedwell (POSTEMERGENCE, 250 g/ha): 100"
C#CCN1C(=O)COc2cc(F)c(-c3nn4c(c3Br)CCCC4)cc21 [Compound 56],100,–,100,–,100,100,–
CCOCOc1cc(-c2nn3c(c2Cl)CCCC3)c(F)cc1Cl [Compound 59],–,100,–,100,–,–,"Plant response rating (0 to 100), Speedwell (POSTEMERGENCE, Rate 2 g/ha): 100; Plant response rating Speedwell (PREEMERGENCE, 125 g/ha): 100; Plant response rating (0 to 100), Speedwell (Rate 8 g/ha, POSTEMERGENCE): 100; Plant response rating (0 to 100), Speedwell (Rate 8 g/ha, PREEMERGENCE): 50; Plant response rating (0 to 100), Speedwell (Rate 31 g/ha, PREEMERGENCE): 100"
C=C(Cl)COc1cc(-c2nn3c(c2Cl)CCCC3)c(F)cc1Cl [Compound 40],100,100,90,95,–,–,–
CC(C)OC(=O)COc1cc(-c2nn3c(c2Cl)CCCC3)c(F)cc1Cl [Compound 39],95,100,90,90,–,–,–
CC(C)Oc1cc(-c2nn3c(c2Br)CCCC3)c(F)cc1Cl [Compound 38],–,–,–,–,–,–,"Plant response rating (0 to 100), Speedwell (PREEMERGENCE, Rate 1 g/ha): 0; Plant response rating (0 to 100), Speedwell (PREEMERGENCE, Rate 4 g/ha): 0; Plant response rating (0 to 100), Speedwell (Rate 16 g/ha, PREEMERGENCE): 0"
CCN1C(=O)COc2cc(F)c(-c3nn4c(c3Cl)CCCC4)cc21 [Compound 54],100,–,100,–,100,100,"Plant response rating (0 to 100), Speedwell (PREEMERGENCE, Rate 1 g/ha): 50; Plant response rating (0 to 100), Speedwell (PREEMERGENCE, Rate 4 g/ha): 100; Plant response rating (0 to 100), Speedwell (Rate 16 g/ha, PREEMERGENCE): 100"
CCCN1C(=O)COc2cc(F)c(-c3nn4c(c3Br)CCCC4)cc21 [Compound 63],–,–,–,–,–,–,"Plant response rating Speedwell (PREEMERGENCE, 250 g/ha): 100; Plant response rating (0 to 100), Speedwell (PREEMERGENCE, Rate 4 g/ha): 0; Plant response rating (0 to 100), Speedwell (Rate 16 g/ha, PREEMERGENCE): 90"
COCN1C(=O)COc2cc(F)c(-c3nn4c(c3Br)CCCC4)cc21 [Compound 67],100,–,100,–,100,90,–
COCN1C(=O)COc2cc(F)c(-c3nn4c(c3Cl)CCCC4)cc21 [Compound 55],100,–,100,–,100,60,–
C#CC(C)N1C(=O)COc2cc(F)c(-c3nn4c(c3Cl)CCCC4)cc21 (stereo not drawn) [Compound 50],100,–,100,–,70,0,–
COCOc1cc(-c2nn3c(c2Cl)CCCC3)c(F)cc1Cl [Compound 58],–,100,–,100,–,–,"Plant response rating (0 to 100), Speedwell (POSTEMERGENCE, Rate 2 g/ha): 40; Plant response rating Speedwell (PREEMERGENCE, 125 g/ha): 100; Plant response rating (0 to 100), Speedwell (PREEMERGENCE, Rate 2 g/ha): 0; Plant response rating (0 to 100), Speedwell (Rate 8 g/ha, POSTEMERGENCE): 70; Plant response rating (0 to 100), Speedwell (Rate 8 g/ha, PREEMERGENCE): 100; Plant response rating (0 to 100), Speedwell (Rate 31 g/ha, PREEMERGENCE): 100"
